Experimental data: US20250275982A1, “SOLID FORM FORMULATION COMPRISING CHROMIUM OR COPPER OR A VITAMIN, COMPOSITIONS AND USES THEREOF” (ALESCO S.R.L., priority 2019, published 2025)
Structures can show the parent of a compound that is named as a salt.

Columns and labels:
Assay type in all cases: cell-based
[1] = test system: differentiated mouse myoblasts; assay: ATP study: colorimetric assay of ATP content in insulin-treated differentiated mouse myoblasts
Text: (§1) In vitro efficacy study: evaluation of the modulation of the carbohydrate metabolism by two compositions comprising a chromium salt (Composition 1 and Composition 2) in a culture of differentiated mouse myoblasts.
(§2) The following endpoints were considered:—glucose uptake, by means of intracellular glucose assay; • expression of GLUT-4, insulin-sensitive glucose transporter; and • ATP content, the primary source of energy for cellular biochemical reactions.
(§3) The experimental model used in this study is differentiated mouse myoblasts (ATCC Number: CRL-1772, lot 70013341), cultured in Dulbecco's Modified Eagle's Medium (DMEM) supplemented with 10% foetal bovine serum at 37° C., 5% CO2. The formation of myotubes is induced by adding horse serum.
(§4) The experimental protocol provided for: • Untreated control cells (CTR-); • Insulin-treated control cells (100 nM); • Insulin-treated cells and the Compounds in question (Composition 1 and Composition 2); • Insulin-treated cells and the reference Compound (metformin).
(§5) Three concentrations of each composition under study (Composition 1 and 2) were tested: 500 μM, 100 µM and 50 μM (Cr). The preparation of the samples involved the use of DMSO as solvent.
(§6) The reference Compound (metformin hydrochloride) was tested at 2000 μm. • The treatment of the cells with Composition 1 and 2 and reference Composition extended for 24 hours.
(§7) The cultures were then treated with insulin (100 nM) for 4 hours. A source of glucose was added to the media in the glucose uptake evaluation study. The treatments were conducted in quadruplicate.
(§8) At the end of the treatments the cells were lysed to obtain a cell homogenate on which it was assayed: • glucose, by means of colorimetric assay; • ATP, by means of colorimetric assay; • GLUT-4, by means of ELISA technique.
(§9) Commercially available colorimetric and ELISA kits were used.
(§10) The colorimetric kits use a specific probe, a mixture of reaction enzymes and a curve with known amounts of each standard.
(§11) The data obtained in the experimental groups treated with the samples subject of the study were subjected to statistical analysis and compared with each other and with insulin according to the t-test. Variations are considered significant for p<0.05.
(§12) ATP assay: the results (Table 4 and FIG. 3) are expressed as mean content±st.dev. (expressed in nanomoles) and as a mean % variation with respect to treatment with insulin. Statistically significant data with respect to insulin are reported with *, while ^∘ indicates differences between tested compounds.

GLUT-4 = GLUT-4 study: ELISA of GLUT-4 in cell homogenate of insulin-treated differentiated mouse myoblasts
Text: as §1, §2, §3, §4, §5, §6, §7, §8, §9
ELISA kits exploit the competitive binding of an antigen (in this case GLUT-4) with its primary antibody. The immune complex (antigen-antibody) is in turn recognised by a secondary antibody conjugated to a peroxidase. The addition of the peroxidase substrate produces a colorimetric reaction with intensity proportional to the amount of immune complexes present and thus to the amount of bound target molecule. Quantitative determination exploits a calibration curve constructed with known and increasing concentrations of standard marker.
as §11
as §12, with “GLUT-4” for “ATP”, “3” for “4”, “2)” for “3)”, “μg/L)” for “nanomoles)”

[2] = test system: differentiated mouse myoblasts; assay: Glucose uptake study: intracellular glucose colorimetric assay in insulin-treated differentiated mouse myoblasts
Text: as §1, §2, §3, §4, §5, §6, §7, §8, §9, §10, §11
as §12, with “Glucose” for “ATP”, “2” for “4”, “1)” for “3)”

[3] = 2000 um for 24 hours + insulin 100 nM for 4 hours
[4] = insulin 100 nM for 4 hours, insulin-treated control cells
[5] = 50 μM (Cr) for 24 hours + insulin 100 nM for 4 hours
[6] = 100 μM (Cr) for 24 hours + insulin 100 nM for 4 hours
[7] = 500 μM (Cr) for 24 hours + insulin 100 nM for 4 hours
[8] = at 500 µM and 100 µM, significance vs. insulin p<0.05

CN(C)C(=N)N=C(N)N [Metformin, metformin hydrochloride]
% var. vs. insulin (ATP assay) ([1]; 2000 um + insulin): 17.6% | mean value (ATP assay, mean content) [1, 3]: 4.61 nmol | % var. vs. insulin (GLUT-4 assay) (GLUT-4; 2000 um + insulin): 28.0% | mean value (GLUT-4 assay, mean content) (GLUT-4; [3]): 6.71 µg/L | % var. vs. insulin (glucose assay) ([2]; 2000 um + insulin): 24.6% | mean value (glucose assay, mean content) [2, 3]: 11.73 nmol

Insulin: insulin (100 nM) used to treat control cells and all treated cultures
mean value (ATP assay, mean content) [1, 4]: 3.92 nmol | mean value (GLUT-4 assay, mean content) (GLUT-4; [4]): 5.24 µg/L | mean value (glucose assay, mean content) [2, 4]: 9.42 nmol

chromium (III) picolinate [CR picolinate]
mean value (ATP assay, mean content) [1, 5]: 4.09 nmol | % var. vs. insulin (ATP assay) ([1]; 50 μM + insulin): 4.3% | mean value (ATP assay, mean content) [1, 6]: 4.78 nmol | % var. vs. insulin (ATP assay) ([1]; 100 μM + insulin): 22.1% | mean value (ATP assay, mean content) [1, 7]: 5.35 nmol | % var. vs. insulin (ATP assay) ([1]; 500 μM + insulin): 36.5% | intracellular ATP, behaviour over the three concentrations, in words ([1]; 500, 100 and 50 μM): showed a dose-dependent behaviour | intracellular ATP, statistical comparison between the compositions, in words ([1]; at 50 μM): does not show performance differences | levels of intracellular ATP, result in words [1, 8]: effective in significantly increasing the levels of intracellular ATP | mean value (GLUT-4 assay, mean content) (GLUT-4; [5]): 5.60 µg/L | % var. vs. insulin (GLUT-4 assay) (GLUT-4; 50 μM + insulin): 6.8% | mean value (GLUT-4 assay, mean content) (GLUT-4; [6]): 6.35 µg/L | % var. vs. insulin (GLUT-4 assay) (GLUT-4; 100 μM + insulin): 21.1% | mean value (GLUT-4 assay, mean content) (GLUT-4; [7]): 6.50 µg/L | % var. vs. insulin (GLUT-4 assay) (GLUT-4; 500 μM + insulin): 24.0% | GLUT-4 levels, behaviour over the three concentrations, in words (GLUT-4; 500, 100 and 50 μM): showed a dose-dependent behaviour | levels of GLUT-4 carrier, result in words (GLUT-4; [8]): effective in significantly increasing the levels of GLUT-4 carrier | mean value (glucose assay, mean content) [2, 5]: 10.24 nmol | % var. vs. insulin (glucose assay) ([2]; 50 μM + insulin): 8.7% | mean value (glucose assay, mean content) [2, 6]: 11.08 nmol | % var. vs. insulin (glucose assay) ([2]; 100 μM + insulin): 17.6% | mean value (glucose assay, mean content) [2, 7]: 11.24 nmol | % var. vs. insulin (glucose assay) ([2]; 500 μM + insulin): 19.3% | glucose uptake, behaviour over the three concentrations, in words ([2]; 500, 100 and 50 μM): showed a dose-dependent behaviour | insulin-dependent glucose uptake, result in words [2, 8]: effective in significantly increasing insulin-dependent glucose uptake
